Data from patent US20260048052A1, “METHODS OF TREATING TENOSYNOVIAL GIANT CELL TUMORS” (Deciphera Pharmaceuticals, LLC, priority 2023, published 2026).
“And” between values parts separate entries of the source, which are not always exact repeats. Equal values may be shown once.

Test system: patients with TGCT not amenable to surgery
Assay: Phase 3, randomized, placebo-controlled, double-blind study of vimseltinib in patients with TGCT: efficacy
Type: in vivo, human
Procedure: This study is a two-part, randomized, double-blind, placebo-controlled study to assess the efficacy and safety of vimseltinib in patients with TGCT not amenable to surgery with no prior anti-CSF1/CSF1R therapy (prior therapy with imatinib or nilotinib allowed). In Part 1, patients (n=123) were randomized two-to-one to receive either 30 mg twice weekly of vimseltinib (n=83) or placebo (n=40) for 24 weeks. Vimseltinib or matching placebo was administered orally each week on day 1 and day 5 (±1 day) at approximately the same time of day on an empty stomach, with ≥24 hours between doses. An MRI of the affected joint was performed at screening, cycle 4 day 1 (week 13; ±7 days), and at the end of Part 1. Part 2 is an ongoing open-label study, in which patients from both the vimseltinib and placebo arms receive treatment with vimseltinib.
The primary endpoint of the study is the objective response rate (ORR) at Week 25 as measured by Response Evaluation Criteria in Solid Tumors (RECIST) version 1.1 by blinded independent radiologic review (IRR). Key secondary endpoints included the objective response rate at Week 25 by IRR per tumor volume score (TVS), active range of motion (ROM) at Week 25, PROMIS physical function (PROMIS-PF) score, worst stiffness numeric rating scale (NRS) score at Week 25, EQ-visual analogue scale (EQ-VAS) score at Week 25, and greater than or equal to 30% reduction in Brief Pain Inventory (BPI) in worst pain and less than 30% increase in narcotic use (BPI-30) at Week 25. Other secondary endpoints included duration of response (DOR) and safety.
Eligibility Criteria: Eligible patients were aged ≥18 years with a histologically confirmed diagnosis of TGCT for which surgical resection would potentially cause worsening functional limitation or severe morbidity. Patients had at least 1 measurable lesion ≥2 cm using Response Evaluation Criteria in Solid Tumors version 1.1 (RECIST v1.1), as assessed from magnetic resonance imaging (MRI) by a central radiologist.
Patients were excluded for receiving previous systemic therapy targeting CSF1 or CSF1R including vimseltinib; previous therapy with imatinib and/or nilotinib was allowed. Patients who received any therapy for TGCT (including investigational therapy) during screening, had major surgery 14 days prior to the first dose of study drug, or participated in a non-TGCT investigational drug study within 30 days of screening were also excluded.
Tumor volume score (TVS) is a semiquantitative magnetic resonance imaging scoring system that describes tumor mass. It is based on 10% increments of the estimated volume of the maximally distended involved synovial cavity or tendon sheath. Scores ranged from 0 to 10, and a tumor that was equal in volume to that of a maximally distended synovial cavity or tendon sheath was scored a 10; a score of 0 indicated no evidence of a tumor.
Complete response denoted disappearance of all tumor(s). Partial response was at least a 50% reduction from baseline in TVS. Progressive disease was at least a 30% increase in TVS from baseline. Stable disease was neither a sufficient decrease to qualify for partial response nor sufficient increase to qualify for progressive disease, taking the nadir as a reference. Response was considered not evaluable if the TVS could not be assessed for reasons such as inadequate or missing imaging.
Active range of motion (ROM; in degrees) was assessed using a goniometer and was normalized using a reference standard provided by the American Medical Association to compute the relative active ROM. In joints where more than one motion was measured, the motion with the smallest relative ROM value (worst) was used for evaluating subsequent changes in relative active ROM.
Response for PROMIS-PF, worst stiffness NRS, and EQ-VAS was a change from baseline ≥3, ≤−2, and ≥7, respectively. BPI worst pain response was defined as a ≥30% reduction in worst pain without a ≥30% increase in narcotic analgesic use. […]

[1] = 30 mg twice weekly, ITT N=83, Week 25
[2] = 30 mg twice weekly, ITT, Week 25

## Cc1nc(-c2cnc(NC(C)C)n(C)c2=O)ccc1Oc1ccnc(-c2cnn(C)c2)c1 [Vimseltinib, 2-(isopropylamino)-3-methyl-5-(6-methyl-5-((2-(1-methyl-IH-pyrazol-4-yl)pyridin-4-yl)oxy)pyridin-2-yl)pyrimidin-4(3H)-one]
30 mg twice weekly, FIG. 7A
  clinical benefit (CR+PR+SD), best percentage change in target lesions by IRR: Nearly all patients receiving vimseltinib experienced clinical benefit
[1]
  BPI-30 Response in Worst Pain: 40 (48) n (%)
  CFB in EQ-VAS at Week 25, LS Mean: 13.5
  CFB in Worst Stiffness NRS at Week 25, LS Mean: −2.1
  CR by IRR per TVS: 4 (5%) n (%)
  Complete Response (CR) by IRR per RECIST 1.1: 4 (5%) n (%)
  ORR at Week 25 by IRR per RECIST 1.1: 33 (40%) n (%)
  ORR at Week 25 by IRR per RECIST v1.1: 40%
  PR by IRR per TVS: 52 (63%) n (%)
  Partial Response (PR) by IRR per RECIST 1.1: 29 (35%) n (%)
  Stable disease (SD) by IRR per RECIST 1.1: 42 (51%) n (%)
[2]
  CFB in EQ-VAS at Week 25, Difference in LS Mean vs placebo: 7.4
  CFB in Worst Stiffness NRS at Week 25, Difference in LS Mean vs placebo: −1.8
  Difference in BPI-30 Response in Worst Pain vs placebo (95% CI): 26% and 26 (4, 42) %
  Difference in ORR (vimseltinib vs placebo) by IRR per TVS: 67%
  Difference in ORR (vimseltinib vs. placebo) by IRR per RECIST 1.1: 40%
30 mg twice weekly, N=79
  response rate in active ROM at Week 25: 48%
30 mg twice weekly, N=79, response = change from baseline ≥3
  response rate in PROMIS-PF at Week 25: 43%
30 mg twice weekly, N=79, response = change from baseline ≥7
  response rate in EQ-VAS at Week 25: 37%
30 mg twice weekly, Week 25
  difference in response rate in EQ-VAS vs placebo: 12%
  difference in response rate in PROMIS-PF vs placebo: 18%
  difference in response rate in Worst Stiffness NRS vs placebo: 24%
  difference in response rate in active ROM vs placebo: 28%
30 mg twice weekly, responders
  median duration of response by IRR per RECIST v1.1: not reached
  median duration of response by IRR per TVS: not reached
30 mg twice weekly, response = change from baseline ≤−2
  response rate in Worst Stiffness NRS at Week 25: 39%
30 mg twice weekly, ≥30% reduction in BPI worst pain NRS and <30% increase in narcotic use
  BPI-30 response rate in Worst Pain at Week 25: 48%
Week 25, versus placebo, FIG. 8
  functional and symptomatic improvement across active ROM, PROMIS-PF, worst stiffness NRS, BPI worst pain: More patients experienced improvement in multiple measures
After 6 months
  tumor responses, updated results: sustained tumor responses
